Laboratory results taken from US9409952B2, “Peptide-compound cyclization method” (Chugai Seiyaku Kabushiki Kaisha, priority 2011, dated 2016).
Starred links: 1 amine or outer side, 2 acyl side, 3 side chain; linkers in the order of their positions; H or OH if unused. Positions of bridges follow the written chain, without caps; N, C: chain ends. Non-standard residues stand in square brackets, D forms with d. Residues, ends and D or L forms follow the SMILES beside them. *: point of attachment. NMeF = CN[C@@H](Cc1ccccc1)C(=O)O; NMeβAla = CN(CCC(=O)[*:2])[*:1]; NMeL = CN[C@@H](CC(C)C)C(=O)O; NMeV = CN[C@H](C(=O)O)C(C)C; NMeA = CN[C@@H](C)C(=O)O; Piperidide = C1CCN(*)CC1; dNMeA = CN[C@H](C)C(=O)O; Sar = CNCC(=O)O; tBu = CC(C)(C)*

Assays:
[1] = PAMPA (parallel artificial membrane permeability assay); type: in vitro ADME; details: PAMPA; membrane permeation rate (Pe); 50 mM MOPSO buffer pH 6.5 with 5.0% glycocholic acid, 37° C., 18 hours; read-out: iPAMPA Pe
Method in brief: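 Artificial membrane was 10% (w/v) egg lecithin plus 0.5% (w/v) cholesterol in dodecane on a PVDF filter. A 10 mM DMSO stock was added at 0.5% (v/v) to donor buffer (50 mM MOPSO, pH 6.5, 5.0% glycocholic acid). After 18 h at 37 °C, LC/MS or LC/UV gave donor and acceptor levels for Pe.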

[2] = Metabolic stability in human hepatic microsome; type: in vitro ADME; details: microsomes, pH 7.4; human hepatic microsome, NADPH(+); read-out: CL NADPH(+)

| Structure (SMILES) | Papp at 18 hours, 50 µM [1] [×10⁻⁶ cm/s] | microsomal CLint at 1 uM [2] [µL/min/mg] |
| --- | --- | --- |
| CC(C)C[C@@H]1NC(=O)CCN(C)C(=O)C[C@@H](C(=O)N2CCCCC2)NC(=O)[C@H](CC(C)C)N(C)C(=O)[C@H](CC(C)C)NC(=O)[C@H](Cc2ccccc2)NC(=O)[C@H](C)NC(=O)[C@H]([C@@H](C)O)NC(=O)[C@H](CC(C)C)NC(=O)CN(C)C(=O)[C@H](CC(C)C)NC1=O [DP-324] ([NMeβAla]LL[Sar]LTAFL[NMeL]D-Piperidide; lactam N-11) | 7.7 | 59 |
| CC(C)C[C@H]1C(=O)N(C)[C@@H](C)C(=O)N[C@@H](C)C(=O)N[C@H](C(=O)N2CCCCC2)CC(=O)N(C)CCC(=O)N(C)[C@@H](Cc2ccccc2)C(=O)N(C)[C@@H](C)C(=O)N[C@@H]([C@@H](C)O)C(=O)N(C)[C@@H](C)C(=O)N[C@@H](Cc2ccccc2)C(=O)N(C)[C@@H](C(C)C)C(=O)N1C [DP-326] ([NMeβAla][NMeF][NMeA]T[NMeA]F[NMeV][NMeL][NMeA]AD-Piperidide; lactam N-11) | 2.5 | 15 |
| CC[C@H](C)[C@@H]1NC(=O)[C@@H](C)N(C)C(=O)C[C@@H](C(=O)N2CCCCC2)NC(=O)[C@H](Cc2ccccc2)NC(=O)[C@H]([C@@H](C)O)NC(=O)[C@H](CC(C)C)NC(=O)[C@H](CC(C)C)NC(=O)CN(C)C(=O)[C@H](CC(C)C)NC(=O)[C@H](C)NC(=O)[C@H](CC(C)C)NC1=O [DP-327] ([dNMeA]ILAL[Sar]LLTFD-Piperidide; lactam N-11) | 3.5 | 70 |
| CC[C@H](C)[C@@H]1NC(=O)[C@H]([C@@H](C)O)NC(=O)[C@H](CC(C)C)NC(=O)[C@H](Cc2ccccc2)NC(=O)[C@H](CC(C)C)NC(=O)[C@H](C)NC(=O)C[C@@H](C(=O)N2CCCCC2)NC(=O)[C@H](Cc2ccccc2)NC(=O)[C@H](CC(C)C)NC(=O)[C@H](Cc2ccccc2)N(C)C1=O [DP-329] (ALFLTI[NMeF]LFD-Piperidide; lactam N-10) | 2.4 | 66 |
| CC[C@H](C)[C@@H]1NC(=O)[C@H](CC(C)C)NC(=O)[C@H](Cc2ccccc2)NC(=O)[C@H](CC(C)C)NC(=O)CN(C)C(=O)[C@H](Cc2ccccc2)NC(=O)[C@H](C)NC(=O)C[C@@H](C(=O)N2CCCCC2)NC(=O)[C@H](Cc2ccccc2)NC(=O)[C@H]([C@@H](C)O)NC1=O [DP-330] (AF[Sar]LFLITFD-Piperidide; lactam N-10) | 9.9 | 61 |
| CC[C@H](C)[C@@H]1NC(=O)[C@H](CC(C)C)NC(=O)[C@H](C)N(C)C(=O)C[C@@H](C(=O)N2CCCCC2)NC(=O)[C@H](CC(C)C)NC(=O)[C@H](Cc2ccccc2)NC(=O)[C@H](Cc2ccccc2)N(C)C(=O)[C@H](CC(C)C)NC(=O)[C@H]([C@@H](C)O)NC(=O)[C@H](Cc2ccccc2)NC1=O [DP-331] ([NMeA]LIFTL[NMeF]FLD-Piperidide; lactam N-10) | 0.24 | 198 |
| CC[C@H](C)[C@@H]1NC(=O)[C@H](Cc2ccccc2)NC(=O)[C@H](C)N(C)C(=O)C[C@@H](C(=O)N2CCCCC2)NC(=O)[C@H](CC(C)C)NC(=O)[C@H](Cc2ccccc2)NC(=O)[C@H](Cc2ccccc2)N(C)C(=O)[C@H](CC(C)C)NC(=O)[C@H]([C@@H](C)O)NC(=O)[C@H](CC(C)C)N(C)C1=O [DP-332] ([NMeA]FI[NMeL]TL[NMeF]FLD-Piperidide; lactam N-10) | 14 | 284 |
| CC[C@H](C)[C@@H]1NC(=O)[C@H](CC(C)C)N(C)C(=O)[C@H](Cc2ccccc2)NC(=O)CCN(C)C(=O)C[C@@H](C(=O)N2CCCCC2)NC(=O)[C@H](CC(C)C)NC(=O)[C@H](Cc2ccccc2)NC(=O)[C@H](Cc2ccccc2)N(C)C(=O)[C@H](CC(C)C)NC(=O)[C@H]([C@@H](C)O)NC1=O [DP-334] ([NMeβAla]F[NMeL]ITL[NMeF]FLD-Piperidide; lactam N-10) | 20 | 80 |
| CC(C)C[C@@H]1NC(=O)[C@H](Cc2ccccc2)N(C)C(=O)CNC(=O)[C@H](Cc2ccccc2)NC(=O)[C@H]([C@@H](C)O)NC(=O)[C@H](CC(C)C)N(C)C(=O)CCN(C)C(=O)C[C@@H](C(=O)N2CCCCC2)NC(=O)[C@H](COC(C)(C)C)NC(=O)[C@H](CC(C)C)N(C)C1=O [DP-335] ([NMeβAla][NMeL]TFG[NMeF]L[NMeL]S(tBu)D-Piperidide; lactam N-10) | 22 | 109 |
| CC(C)C[C@H]1C(=O)N(C)[C@@H](Cc2ccccc2)C(=O)N[C@@H]([C@@H](C)O)C(=O)N(C)[C@@H](C)C(=O)N(C)[C@@H](Cc2ccccc2)C(=O)N(C)[C@@H](C)C(=O)N[C@H](C(=O)N2CCCCC2)CC(=O)N(C)CCC(=O)N(C)[C@@H](C(C)C)C(=O)N[C@@H](C)C(=O)N1C [DP-337] ([NMeβAla][NMeV]A[NMeL][NMeF]T[NMeA][NMeF][NMeA]D-Piperidide; lactam N-10) | 17 | 74 |
| CC[C@H](C)[C@@H]1NC(=O)[C@H](Cc2ccccc2)NC(=O)[C@@H](C)N(C)C(=O)C[C@@H](C(=O)N2CCCCC2)NC(=O)[C@H](Cc2ccccc2)N(C)C(=O)[C@H](Cc2ccccc2)NC(=O)[C@H](CC(C)C)NC(=O)[C@H]([C@@H](C)O)NC(=O)[C@H](CC(C)C)NC(=O)[C@H](CC(C)C)N(C)C1=O [DP-338] ([dNMeA]FI[NMeL]LTLF[NMeF]D-Piperidide; lactam N-10) | 4.9 | 146 |
| CC[C@H](C)[C@@H]1NC(=O)[C@H](C(C)C)N(C)C(=O)[C@@H](C)N(C)C(=O)C[C@@H](C(=O)N2CCCCC2)NC(=O)[C@H](CC(C)C)NC(=O)[C@H](Cc2ccccc2)N(C)C(=O)[C@H](CC(C)C)N(C)C(=O)[C@H](Cc2ccccc2)NC(=O)[C@H]([C@@H](C)O)NC(=O)[C@H](CC(C)C)NC1=O [DP-339] ([dNMeA][NMeV]ILTF[NMeL][NMeF]LD-Piperidide; lactam N-10) | 18 | 213 |
| CC(C)C[C@H]1C(=O)N[C@@H](COC(C)(C)C)C(=O)N(C)[C@@H](Cc2ccccc2)C(=O)N(C)[C@@H](C)C(=O)N[C@@H](Cc2ccccc2)C(=O)N(C)[C@@H](C(C)C)C(=O)N[C@H](C(=O)N2CCCCC2)CC(=O)N(C)[C@H](C)C(=O)N[C@@H]([C@@H](C)O)C(=O)NCC(=O)N1C [DP-340] ([dNMeA]TG[NMeL]S(tBu)[NMeF][NMeA]F[NMeV]D-Piperidide; lactam N-10) | 31 | 86 |
| CC(C)C[C@H]1C(=O)N[C@@H](C)C(=O)N(C)[C@@H](Cc2ccccc2)C(=O)N(C)[C@@H](C)C(=O)N(C)[C@@H](Cc2ccccc2)C(=O)N[C@@H]([C@@H](C)O)C(=O)N(C)[C@@H](C)C(=O)N[C@H](C(=O)N2CCCCC2)CC(=O)N(C)[C@H](C)C(=O)N(C)[C@@H](C)C(=O)N1C [DP-341] ([dNMeA][NMeA][NMeL]A[NMeF][NMeA][NMeF]T[NMeA]D-Piperidide; lactam N-10) | 9.5 | 69 |
| CC[C@H](C)[C@@H]1NC(=O)[C@H](CC(C)C)N(C)C(=O)CN(C)C(=O)[C@H]([C@@H](C)O)NC(=O)[C@H](Cc2ccccc2)N(C)C(=O)[C@H](CC(C)C)N(C)C(=O)[C@H](C)N(C)C(=O)C[C@@H](C(=O)N2CCCCC2)NC(=O)[C@H](CC(C)C)N(C)C1=O [DP-342] ([NMeA][NMeL][NMeF]T[Sar][NMeL]I[NMeL]D-Piperidide; lactam N-9) | 33 | 121 |
| CC(C)C[C@@H]1NC(=O)[C@@H](C)N(C)C(=O)C[C@@H](C(=O)N2CCCCC2)NC(=O)[C@H]([C@@H](C)O)NC(=O)[C@H](CC(C)C)N(C)C(=O)[C@H](CC(C)C)N(C)C(=O)[C@H](Cc2ccccc2)NC(=O)[C@H](CC(C)C)N(C)C(=O)[C@H](Cc2ccccc2)N(C)C1=O [DP-343] ([dNMeA]L[NMeF][NMeL]F[NMeL][NMeL]TD-Piperidide; lactam N-9) | 36 | 427 |
| CC(C)C[C@H]1C(=O)N(C)[C@@H](C)C(=O)N(C)[C@@H](Cc2ccccc2)C(=O)N[C@@H]([C@@H](C)O)C(=O)N(C)[C@@H](C)C(=O)N(C)[C@@H](Cc2ccccc2)C(=O)N[C@H](C(=O)N(C)[C@@H](Cc2ccccc2)C(=O)N[C@@H](C)C(=O)N2CCCCC2)CC(=O)N(C)[C@@H](C)C(=O)N(C)[C@@H](C)C(=O)N(C)[C@@H](CC(C)C)C(=O)N[C@@H](C)C(=O)N1C [DP-344] ([NMeA][NMeA][NMeL]A[NMeL][NMeA][NMeF]T[NMeA][NMeF]D[NMeF]A-Piperidide; lactam N-11) | 22 | 30 |
| CC(C)C[C@H]1C(=O)N(C)[C@@H](C)C(=O)N[C@@H]([C@@H](C)O)C(=O)N(C)[C@@H](C)C(=O)N(C)[C@@H](Cc2ccccc2)C(=O)N(C)CC(=O)N[C@H](C(=O)N(C)[C@@H](Cc2ccccc2)C(=O)N[C@@H](C)C(=O)N2CCCCC2)CC(=O)N(C)[C@@H](C)C(=O)N(C)[C@@H](C)C(=O)N[C@@H](C)C(=O)N[C@@H](Cc2ccccc2)C(=O)N1C [DP-345] ([NMeA][NMeA]AF[NMeL][NMeA]T[NMeA][NMeF][Sar]D[NMeF]A-Piperidide; lactam N-11) | 2.8 | 7 |
| CC(C)C[C@H]1C(=O)N(C)[C@@H](C)C(=O)N(C)[C@@H](Cc2ccccc2)C(=O)N[C@@H]([C@@H](C)O)C(=O)N(C)[C@@H](C)C(=O)N(C)[C@@H](Cc2ccccc2)C(=O)N(C)[C@@H](C)C(=O)N[C@H](C(=O)N(C)[C@@H](Cc2ccccc2)C(=O)N[C@@H](C)C(=O)N2CCCCC2)CC(=O)N(C)CCC(=O)N(C)[C@@H](C)C(=O)N[C@@H](C)C(=O)N1C [DP-346] ([NMeβAla][NMeA]A[NMeL][NMeA][NMeF]T[NMeA][NMeF][NMeA]D[NMeF]A-Piperidide; lactam N-11) | 4 | 7 |
